The text below walks through data of patent US20240368120A1 (Terns Pharmaceuticals, Inc., priority 2023, published 2024).

One data set has as its target T1, human GLP-1R receptor (Homo sapiens, UniProt P43220).
T1 construct: expressed in transfected cells
The data set can be described thus: GLP-1R low expression cell assay (cAMP TR-FRET, CHO-K1_hGLP-1Rlow_clone10 cells). The class given is cell-based. As to conditions: for EC50: cAMP TR-FRET, 30 min at 25° C.; for Emax: maximum activation relative to control GLP-1 peptide agonist. The essentials:
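Readout is cAMP TR-FRET after 30 min compound stimulation at 25 °C of a low-GLP-1R-expressing CHO-K1 clone (1,000 cells/well), with 10-point 3-fold serial dilutions. Percent activation versus a control GLP-1 peptide, from duplicates, was Hill-fitted to give EC50.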
(In general: In TR-FRET formats the signal depends on donor and acceptor labels being close together.)

A short description of data set [1]: Rat pharmacokinetics, oral dosing. The class given is in vivo, Sprague-Dawley rats. The note with it: male, Sprague-Dawley, oral dosing at 3 mg/kg, plasma; for half-life: read-out: Rat T1/2. Here is the method: Intravenous dosing: Compounds were formulated at 1.0 mg/mL in a solution comprising 5% polyethylene glycol 400 and 95% (12% (w/v) sulfobutyl-β-cyclodextrin in water) (v/v). Formulated compounds were sterile filtered through a 0.22 micron filter before dosing. Compounds were administered to male, 7-11-week-old Sprague-Dawley rats by jugular vein cannula infusion over 30 minutes at a dose of 1 mg/kg. Oral dosing: Compounds were formulated at 1.0 mg/mL in a solution comprising 5% polyethylene glycol 400 and 95% (12% (w/v) sulfobutyl-β-cyclodextrin in water) (v/v). Formulated compounds were administered to male, 7-11 week old Sprague-Dawley rats by oral gavage at a dose of 10 mg/kg or 3 mg/kg.
Sample collection: Blood collections of about 0.2 mL per time point were performed from jugular vein or other suitable site of each animal, into pre-chilled commercial EDTA-K2 tubes and placed on wet ice until centrifugation. Blood samples were processed for plasma by centrifugation at approximately 4° C., 3,200 g for 10 min. Plasma was collected and transferred into pre-labeled 96 well plate or polypropylene tubes, quick frozen over dry ice and kept at −60° C. or lower until
Data analysis: Plasma concentration versus time data was plotted in graph and analyzed by non-compartmental approaches using the Phoenix WinNonlin 6.3 software program. Related PK parameters were calculated according to dosing route, e.g., CL, Vdss and C0 for intravenous administration, Cmax, Tmax or % F for extravascular administration, and T1/2, AUC(0-t), AUC(0-inf), MRT(0-t), MRT(0-inf) for all routes.

T1 sequence (P43220 24-463): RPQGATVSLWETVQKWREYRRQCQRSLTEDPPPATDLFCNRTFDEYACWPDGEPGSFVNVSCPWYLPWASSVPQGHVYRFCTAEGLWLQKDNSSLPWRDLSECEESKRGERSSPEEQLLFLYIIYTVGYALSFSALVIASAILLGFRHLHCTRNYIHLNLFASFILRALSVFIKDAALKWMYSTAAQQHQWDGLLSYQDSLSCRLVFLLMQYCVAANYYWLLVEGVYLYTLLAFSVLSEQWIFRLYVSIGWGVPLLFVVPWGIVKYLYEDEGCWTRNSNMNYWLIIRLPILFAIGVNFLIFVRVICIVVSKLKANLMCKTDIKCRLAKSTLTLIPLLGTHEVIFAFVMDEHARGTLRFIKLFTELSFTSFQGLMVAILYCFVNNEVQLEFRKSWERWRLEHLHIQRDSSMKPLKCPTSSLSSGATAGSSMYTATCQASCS

One may read the EC50 as the concentration at which the effect is half-maximal. By Emax is commonly meant the greatest response seen or fitted, relative to the assay's reference. By Cmax is commonly meant the highest concentration seen after dosing. The bioavailability is the share of a dose that reaches the circulation, judged against a reference dose that is usually intravenous. For the compound `Cn1c(CN2CCC(c3cccc(OCc4ccc(C#N)cc4F)c3)CC2)nc2c(OC(F)F)cc(C(=O)O)cc21` [Compound 111, 2-((4-(3-((4-Cyano-2-fluorobenzyl)oxy)phenyl)piperidin-1-yl)methyl)-4-(difluoromethoxy)-1-methyl-1H-benzo[d]imidazole-6-carboxylic acid], on human GLP-1R receptor, the EC50 lay in the range of 100 to 1000 nM and the Emax is more than 85%. In addition, in data set [1], the Cmax was more than 5000 ng/mL, the half-life was 1.5 to 2.5 h and the bioavailability is more than 85%.

One may read the AUC as the area under the concentration-time curve, a measure of exposure. On human GLP-1R receptor, `Cn1c(CN2CCC(c3cccc(OCc4ccc(C#N)cc4F)n3)CC2)nc2c(OCF)cc(C(=O)O)cc21` [Compound 113, 2-((4-(6-((4-Cyano-2-fluorobenzyl)oxy)pyridin-2-yl)piperidin-1-yl)methyl)-4-(fluoromethoxy)-1-methyl-1H-benzo[d]imidazole-6-carboxylic acid] showed an EC50 of less than 10 nM and an Emax of more than 85%. Further, in data set [1], the AUC fell in the range of 500 to 2500 ng·h/mL, the Cmax is 1000 to 2000 ng/mL, the half-life lay in the range of 1.5 to 2.5 h and the bioavailability is 50 to 85%.

`C[C@]1(c2ccc(Cl)cn2)Oc2cccc(C3CCN(Cc4nc5c(OC6CC6)cc(C(=O)O)cc5n4Cc4cncs4)CC3)c2O1` [Compound 6, (S)-2-((4-(2-(5-chloropyridin-2-yl)-2-methylbenzo[d][1,3]dioxol-4-yl)piperidin-1-yl)methyl)-4-cyclopropoxy-1-(thiazol-5-ylmethyl)-1H-benzo[d]imidazole-6-carboxylic acid]: on human GLP-1R receptor, the EC50 is less than 10 nM and the Emax is more than 85%. For the same compound, in data set [1], the AUC is less than 500 ng·h/mL, the Cmax is less than 500 ng/mL, the half-life was in the range of 1.5 to 2.5 h and the bioavailability lay in the range of 25 to 50%.

`COc1cc(C(=O)O)cc2c1nc(Cc1cc(F)c(-c3cccc(OCc4ccc(C#N)cc4F)n3)cc1F)n2C` [Compound 304, 2-(4-(6-((4-Cyano-2-fluorobenzyl)oxy)pyridin-2-yl)-2,5-difluorobenzyl)-4-methoxy-1-methyl-1H-benzo[d]imidazole-6-carboxylic acid]: on human GLP-1R receptor, the EC50 is less than 10 nM and the Emax is more than 85%. For the same compound, in data set [1], the AUC lay within 2500 to 10000 ng·h/mL, the Cmax was in the range of 2000 to 5000 ng/mL, the half-life is 1.5 to 2.5 h and the bioavailability was 50 to 85%.

For the compound `Cn1c(CN2CCC(c3ccc(F)c(OCc4ccc(Cl)cc4F)c3)CC2)nc2c(OC(F)F)cc(C(=O)O)cc21` [Compound 216, 2-((4-(3-((4-Chloro-2-fluorobenzyl)oxy)-4-fluorophenyl)piperidin-1-yl)methyl)-4-(difluoromethoxy)-1-methyl-1H-benzo[d]imidazole-6-carboxylic acid], on human GLP-1R receptor, the EC50 lay within 10 to 100 nM and the Emax is more than 85%. Also, in data set [1], the highest concentration (Cmax) is more than 5000 ng/mL, the half-life is 1.5 to 2.5 h and the bioavailability lay in the range of 50 to 85%.

At human GLP-1R receptor, `Cn1c(CN2CCC(c3cccc(OCc4ccc(Cl)c5ccoc45)n3)CC2)nc2c(OC(F)F)cc(C(=O)O)cc21` [Compound 237, 2-((4-(6-((4-Chlorobenzofuran-7-yl)methoxy)pyridin-2-yl)piperidin-1-yl)methyl)-4-(difluoromethoxy)-1-methyl-1H-benzo[d]imidazole-6-carboxylic acid] yielded an EC50 of less than 10 nM and an Emax of more than 85%. Besides, in data set [1], the Cmax was in the range of 2000 to 5000 ng/mL, the half-life is 1.5 to 2.5 h and the bioavailability fell in the range of 50 to 85%.

`CC(C)(C)Oc1cc(C(=O)O)cc2c1nc(CN1CCC(c3cccc(OCc4ccc(C#N)cc4F)n3)CC1)n2C[C@@H]1CCO1` [Compound 109, (S)-4-(tert-Butoxy)-2-((4-(6-((4-cyano-2-fluorobenzyl)oxy)pyridin-2-yl)piperidin-1-yl)methyl)-1-(oxetan-2-ylmethyl)-1H-benzo[d]imidazole-6-carboxylic acid]: on human GLP-1R receptor, the EC50 was less than 10 nM and the Emax was more than 85%.

As for `C[C@]1(c2ccc(Cl)cn2)Oc2cccc(C3CCN(Cc4nc5cc(C(=O)O)c6c(c5n4C[C@@H]4CCO4)OCCO6)CC3)c2O1` [Compound 99, 2-((4-((S)-2-(5-Chloropyridin-2-yl)-2-methylbenzo[d][1,3]dioxol-4-yl)piperidin-1-yl)methyl)-1-(((S)-oxetan-2-yl)methyl)-7,8-dihydro-1H-[1,4]dioxino[2′,3′:3,4]benzo[1,2-d]imidazole-5-carboxylic acid], on human GLP-1R receptor, the EC50 is more than 1000 nM and the Emax is more than 85%.

At human GLP-1R receptor, `Cn1c(CN2CCC(c3cccc(OCc4ccc(C#N)cc4F)n3)CC2)nc2c(OC(F)(F)F)cc(C(=O)O)cc21` [Compound 125, 2-((4-(6-((4-Cyano-2-fluorobenzyl)oxy)pyridin-2-yl)piperidin-1-yl)methyl)-1-methyl-4-(trifluoromethoxy)-1H-benzo[d]imidazole-6-carboxylic acid] yielded an EC50 of 10 to 100 nM and an Emax of more than 85%.

On human GLP-1R receptor, `Cn1c(CN2CCC(c3cccc4c3O[C@H](c3ccc(C#N)cc3F)CO4)CC2)nc2c(OC(F)F)cc(C(=O)O)cc21` [Compound 124, (R)-2-((4-(3-(4-Cyano-2-fluorophenyl)-2,3-dihydrobenzo[b][1,4]dioxin-5-yl)piperidin-1-yl)methyl)-4-(difluoromethoxy)-1-methyl-1H-benzo[d]imidazole-6-carboxylic acid] registered an EC50 of more than 1000 nM and an Emax of 25 to 50%.

Compound `COc1cc(C(=O)O)cc2c1nc(CN1CC[C@@H](c3cccc(OCc4ccc(C#N)cc4F)n3)[C@@H]3C[C@@H]31)n2C[C@@H]1CCO1` [Compound 387, 2-(((1S,5R,6S)-5-(6-((4-cyano-2-fluorobenzyl)oxy)pyridin-2-yl)-2-azabicyclo[4.1.0]heptan-2-yl)methyl)-4-methoxy-1-(((S)-oxetan-2-yl)methyl)-1H-benzo[d]imidazole-6-carboxylic acid] showed an EC50 on human GLP-1R receptor of less than 10 nM.

For `N#Cc1ccc(COc2cccc(C3CCN(Cc4nc5c(N)nc(C(=O)O)cc5n4C[C@@H]4CCO4)CC3)n2)c(F)c1` [Compound 134, (S)-4-amino-2-((4-(6-((4-cyano-2-fluorobenzyl)oxy)pyridin-2-yl)piperidin-1-yl)methyl)-1-(oxetan-2-ylmethyl)-1H-imidazo[4,5-c]pyridine-6-carboxylic acid], on human GLP-1R receptor, the EC50 lay within 10 to 100 nM and the Emax is more than 85%.

As for `COc1cc(C(=O)O)cc2c1nc(CN1CCC(c3cccc4c3O[C@@](C)(c3ccc(Cl)cn3)O4)CC1)n2C(C)C` [Compound 86, (S)-2-((4-(2-(5-Chloropyridin-2-yl)-2-methylbenzo[d][1,3]dioxol-4-yl)piperidin-1-yl)methyl)-1-isopropyl-4-methoxy-1H-benzo[d]imidazole-6-carboxylic acid], on human GLP-1R receptor, the EC50 lay within 100 to 1000 nM and the Emax is more than 85%.

On human GLP-1R receptor, `Cn1c(CN2CCC(c3cccc4c3O[C@@](C)(c3ccc(Cl)cn3)O4)CC2)nc2c(C(C)(F)F)cc(C(=O)O)cc21` [Compound 87, (S)-2-((4-(2-(5-Chloropyridin-2-yl)-2-methylbenzo[d][1,3]dioxol-4-yl)piperidin-1-yl)methyl)-4-(1,1-difluoroethyl)-1-methyl-1H-benzo[d]imidazole-6-carboxylic acid] had an EC50 of 100 to 1000 nM and an Emax of more than 85%.

In the case of `Cn1c(CN2CCC(c3cccc(OCc4ccc(Cl)cc4F)n3)CC2)nc2c(OC(F)F)cc(-c3cc(O)no3)cc21` [Compound 316, 5-(2-((4-(6-((4-Chloro-2-fluorobenzyl)oxy)pyridin-2-yl)piperidin-1-yl)methyl)-4-(difluoromethoxy)-1-methyl-1H-benzo[d]imidazol-6-yl) isoxazol-3-ol], on human GLP-1R receptor, the EC50 was 100 to 1000 nM and the Emax was in the range of 50 to 85%.

On human GLP-1R receptor, `Cn1c(CN2CCC(c3cccc(OCc4ccc(OC(F)F)cc4F)n3)CC2)nc2c(OC(F)F)cc(C(=O)O)cc21` [Compound 221, 4-(Difluoromethoxy)-2-((4-(6-((4-(difluoromethoxy)-2-fluorobenzyl)oxy)pyridin-2-yl)piperidin-1-yl)methyl)-1-methyl-1H-benzo[d]imidazole-6-carboxylic acid] returned an EC50 of 10 to 100 nM and an Emax of more than 85%.

On to `Cn1c(CN2CCC(c3cccc(OCc4ccc(C(F)(F)F)cc4F)n3)CC2)nc2c(OC(F)F)cc(C(=O)O)cc21` [Compound 223], for which, on human GLP-1R receptor, the EC50 fell in the range of 10 to 100 nM and the Emax is more than 85%.

On human GLP-1R receptor, `Cn1c(CN2CCC(c3cc(OCc4ccc(Cl)cc4F)ccc3F)CC2)nc2c(OC(F)F)cc(C(=O)O)cc21` [Compound 167, 2-((4-(5-((4-Chloro-2-fluorobenzyl)oxy)-2-fluorophenyl)piperidin-1-yl)methyl)-4-(difluoromethoxy)-1-methyl-1H-benzo[d]imidazole-6-carboxylic acid] returned an EC50 of more than 1000 nM and a maximum response (Emax) of 25 to 50%.
